Results from patent US7671203B2, “Method and system for separation and purification of at least one narcotic alkaloid using reverse phase preparative chromatography” (Mallinckrodt Inc., priority 2003, dated 2010).

Assay: Solubility of codeine in water

COc1ccc2c3c1O[C@H]1[C@@H](O)C=C[C@H]4[C@@H](C2)N(C)CC[C@@]341 [Codeine, codeine]
concentration above which codeine is not fully soluble in water: ≤ 30 grams/liter
